Source: PubChem BioAssay (NCI)
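Protocol summary: plate cells (96-well), add compound at 5 concentrations, incubate 48 h, interpolate endpoints linearly. Abbreviation: GI50, concentration required for 50% inhibition of growth. TGI is the concentration that stops growth completely.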

Key:
Assay in all cases: DTP human tumour cell line panel, 48 h
786-0 renal = tested on: 786-0 renal
A498 renal = tested on: A498 renal
A549 NSCLC = tested on: A549 NSCLC
ACHN renal = tested on: ACHN renal
BT-549 breast = tested on: BT-549 breast
CAKI-1 renal = tested on: CAKI-1 renal
CCRF-CEM leukemia = tested on: CCRF-CEM leukemia
COLO 205 colon = tested on: COLO 205 colon
DU-145 prostate = tested on: DU-145 prostate
EKVX NSCLC = tested on: EKVX NSCLC
HCC-2998 colon = tested on: HCC-2998 colon
HCT-116 colon = tested on: HCT-116 colon
HCT-15 colon = tested on: HCT-15 colon
HL-60(TB) leukemia = tested on: HL-60(TB) leukemia
HOP-62 NSCLC = tested on: HOP-62 NSCLC
HOP-92 NSCLC = tested on: HOP-92 NSCLC
HS 578T breast = tested on: HS 578T breast
HT29 colon = tested on: HT29 colon
IGROV1 ovarian = tested on: IGROV1 ovarian
K-562 leukemia = tested on: K-562 leukemia
KM12 colon = tested on: KM12 colon
LOX IMVI melanoma = tested on: LOX IMVI melanoma
M14 melanoma = tested on: M14 melanoma
MALME-3M melanoma = tested on: MALME-3M melanoma
MCF7 breast = tested on: MCF7 breast
MDA-MB-231 breast = tested on: MDA-MB-231 breast
MDA-MB-435 = tested on: MDA-MB-435
MDA-MB-468 breast = tested on: MDA-MB-468 breast
MOLT-4 leukemia = tested on: MOLT-4 leukemia
NCI-H226 lung = tested on: NCI-H226 lung
NCI-H23 lung = tested on: NCI-H23 lung
NCI-H460 lung = tested on: NCI-H460 lung
NCI-H522 lung = tested on: NCI-H522 lung
NCI/ADR-RES ovarian = tested on: NCI/ADR-RES ovarian
OVCAR-3 ovarian = tested on: OVCAR-3 ovarian
OVCAR-4 ovarian = tested on: OVCAR-4 ovarian
OVCAR-5 ovarian = tested on: OVCAR-5 ovarian
OVCAR-8 ovarian = tested on: OVCAR-8 ovarian
PC-3 prostate = tested on: PC-3 prostate
RPMI-8226 leukemia = tested on: RPMI-8226 leukemia
RXF 393 renal = tested on: RXF 393 renal
SF-268 CNS = tested on: SF-268 CNS
SF-295 CNS = tested on: SF-295 CNS
SF-539 CNS = tested on: SF-539 CNS
SK-MEL-2 melanoma = tested on: SK-MEL-2 melanoma
SK-MEL-28 melanoma = tested on: SK-MEL-28 melanoma
SK-MEL-5 melanoma = tested on: SK-MEL-5 melanoma
SK-OV-3 ovarian = tested on: SK-OV-3 ovarian
SN12C renal = tested on: SN12C renal
SNB-19 CNS = tested on: SNB-19 CNS
SNB-75 CNS = tested on: SNB-75 CNS
SR leukemia = tested on: SR leukemia
SW-620 colon = tested on: SW-620 colon
T-47D breast = tested on: T-47D breast
TK-10 renal = tested on: TK-10 renal
U251 CNS = tested on: U251 CNS
UACC-257 melanoma = tested on: UACC-257 melanoma
UACC-62 melanoma = tested on: UACC-62 melanoma
UO-31 renal = tested on: UO-31 renal

CCOc1ccc2ncc(C#Cc3cncc(C(=O)Nc4ccc(CN5CCN(C)CC5)c(C(F)(F)F)c4)c3)n2n1 was tested, and the GI50 (786-0 renal) was 1.56 µM, the TGI (786-0 renal) was 2.95 µM and the GI50 (A498 renal) was 6.96 µM. For the same compound, the TGI (A498 renal) was 24.3 µM, the GI50 (A549 NSCLC) was 1.16 µM and the TGI (A549 NSCLC) was 22.7 µM. The GI50 (ACHN renal) was 0.561 µM, the TGI (ACHN renal) was 15 µM and the GI50 (BT-549 breast) was 1.79 µM. For the same compound, the TGI (BT-549 breast) was 12.4 µM, the GI50 (CAKI-1 renal) was 0.79 µM and the TGI (CAKI-1 renal) was 13.2 µM. The GI50 (CCRF-CEM leukemia) was 0.0642 µM, the TGI (CCRF-CEM leukemia) was > 21.2 µM and the GI50 (COLO 205 colon) was 0.272 µM. For the same compound, the TGI (COLO 205 colon) was 0.883 µM, the GI50 (DU-145 prostate) was 1.1 µM and the TGI (DU-145 prostate) was 17.3 µM. For the same compound, the GI50 (EKVX NSCLC) was 0.704 µM, the TGI (EKVX NSCLC) was 17.8 µM and the GI50 (HCC-2998 colon) was 2.34 µM. It also gave a TGI (HCC-2998 colon) of 20.1 µM, a GI50 (HCT-116 colon) of 0.225 µM and a TGI (HCT-116 colon) of 1.56 µM. It also gave a GI50 (HCT-15 colon) of 0.357 µM, a TGI (HCT-15 colon) of 1.66 µM and a GI50 (HL-60(TB) leukemia) of 0.521 µM. It also gave a TGI (HL-60(TB) leukemia) of 16.3 µM, a GI50 (HOP-62 NSCLC) of 1.25 µM and a TGI (HOP-62 NSCLC) of 14.4 µM. It also gave a GI50 (HOP-92 NSCLC) of 0.206 µM, a TGI (HOP-92 NSCLC) of 1.34 µM and a GI50 (HS 578T breast) of 0.283 µM. The TGI (HS 578T breast) was 3.11 µM, the GI50 (HT29 colon) was 0.475 µM and the TGI (HT29 colon) was 2.39 µM. For the same compound, the GI50 (IGROV1 ovarian) was 2.18 µM, the TGI (IGROV1 ovarian) was 19.1 µM and the TGI (K-562 leukemia) was 1.36 µM. For the same compound, the TGI (KM12 colon) was 10.5 µM, the GI50 (LOX IMVI melanoma) was 0.608 µM and the TGI (LOX IMVI melanoma) was 1.94 µM. The GI50 (M14 melanoma) was 0.416 µM, the TGI (M14 melanoma) was 1.79 µM and the GI50 (MALME-3M melanoma) was 0.353 µM. The TGI (MALME-3M melanoma) was 1.71 µM, the GI50 (MCF7 breast) was 0.208 µM and the TGI (MCF7 breast) was 1.74 µM. It also gave a GI50 (MDA-MB-231 breast) of 0.362 µM, a TGI (MDA-MB-231 breast) of 2.87 µM and a GI50 (MDA-MB-435) of 0.592 µM. The TGI (MDA-MB-435) was 5.15 µM, the GI50 (MDA-MB-468 breast) was 1.66 µM and the TGI (MDA-MB-468 breast) was 11.1 µM. It also gave a GI50 (MOLT-4 leukemia) of 0.316 µM, a TGI (MOLT-4 leukemia) of 3.35 µM and a GI50 (NCI-H226 lung) of 0.151 µM. For the same compound, the TGI (NCI-H226 lung) was 1.85 µM, the GI50 (NCI-H23 lung) was 0.393 µM and the TGI (NCI-H23 lung) was 4.9 µM. The GI50 (NCI-H460 lung) was 0.534 µM, the TGI (NCI-H460 lung) was 16.9 µM and the GI50 (NCI-H522 lung) was 1.4 µM. The TGI (NCI-H522 lung) was 21.9 µM, the GI50 (NCI/ADR-RES ovarian) was 1.16 µM and the TGI (NCI/ADR-RES ovarian) was 2.66 µM. The GI50 (OVCAR-3 ovarian) was 4.5 µM, the TGI (OVCAR-3 ovarian) was 24.6 µM and the GI50 (OVCAR-4 ovarian) was 3.56 µM. The TGI (OVCAR-4 ovarian) was 28.7 µM, the GI50 (OVCAR-5 ovarian) was 0.802 µM and the TGI (OVCAR-5 ovarian) was 12 µM. It also gave a GI50 (OVCAR-8 ovarian) of 3.21 µM, a TGI (OVCAR-8 ovarian) of 10.6 µM and a GI50 (PC-3 prostate) of 1.52 µM. The TGI (PC-3 prostate) was 19.2 µM, the GI50 (RPMI-8226 leukemia) was 1.06 µM and the TGI (RPMI-8226 leukemia) was 4.38 µM. For the same compound, the GI50 (RXF 393 renal) was 0.89 µM, the TGI (RXF 393 renal) was 2.34 µM and the GI50 (SF-268 CNS) was 1.92 µM. For the same compound, the TGI (SF-268 CNS) was 17.6 µM, the GI50 (SF-295 CNS) was 0.918 µM and the TGI (SF-295 CNS) was 19 µM. It also gave a GI50 (SF-539 CNS) of 0.143 µM, a TGI (SF-539 CNS) of 0.755 µM and a GI50 (SK-MEL-2 melanoma) of 1.34 µM. For the same compound, the TGI (SK-MEL-2 melanoma) was 11.9 µM, the GI50 (SK-MEL-28 melanoma) was 1.3 µM and the TGI (SK-MEL-28 melanoma) was 2.66 µM. For the same compound, the GI50 (SK-MEL-5 melanoma) was 1.89 µM, the TGI (SK-MEL-5 melanoma) was 7.25 µM and the GI50 (SK-OV-3 ovarian) was 4.64 µM. For the same compound, the TGI (SK-OV-3 ovarian) was 19.7 µM, the GI50 (SN12C renal) was 0.643 µM and the TGI (SN12C renal) was 11.7 µM. For the same compound, the GI50 (SNB-19 CNS) was 6.37 µM, the TGI (SNB-19 CNS) was 21.7 µM and the GI50 (SNB-75 CNS) was 3.31 µM. For the same compound, the TGI (SNB-75 CNS) was 16.3 µM, the GI50 (SR leukemia) was 0.723 µM and the TGI (SR leukemia) was 9.4 µM. The GI50 (SW-620 colon) was 0.287 µM, the TGI (SW-620 colon) was 2.3 µM and the GI50 (T-47D breast) was 17.8 µM. For the same compound, the TGI (T-47D breast) was > 70.5 µM, the GI50 (TK-10 renal) was 8.09 µM and the TGI (TK-10 renal) was 23.3 µM. The GI50 (U251 CNS) was 11.7 µM, the TGI (U251 CNS) was 30.9 µM and the GI50 (UACC-257 melanoma) was 2.16 µM. For the same compound, the TGI (UACC-257 melanoma) was 11.4 µM, the GI50 (UACC-62 melanoma) was 9.92 µM and the TGI (UACC-62 melanoma) was 24.5 µM. The GI50 (UO-31 renal) was 2.2 µM and the TGI (UO-31 renal) was 13.7 µM.
